Results taken from patent US4567182A, “Compounds endowed with immunomodulating activity” (Co Pharma Corporation s.r.l., priority 1981, dated 1986).

What was measured:
[1] = test system: T-lymphocytes; assay: Ability of T-lymphocytes to form "active" E-rosettes; assay type: cell-based
Protocol: The effect of the compounds object of this invention on the ability of T-lymphocytes to form "active" E-rosettes, has also been studied (Pasino e coll., Boll. Ist. Sieroter, Mil. 60, 4, 297-301, 1981).
Lymphocytes were incubated at 4° for 24 hours, then isolated and incubated for 90 min. in the presence or absence of different concentrations of the drug prior to the assay. Data were expressed as % of cells forming rosettes: as an example, compound (Ib-2) gave an enhancement of the percentage from 35 to 50%, at concentrations from 1 and 3 μg/ml; higher concentrations, the percentage of active E-rosettes decreased.

[2] = test system: PHA stimulated lymphocytes; assay: Stimulation by phytohemagglutinin (PHA) of lymphocytes from Hodgkin's disease patients; assay type: cell-based, human (patients affected by Hodgkin's disease); conditions: for effect on the PHA response: Ib-4 already at 0.1 γ/ml, methisoprinol at 200-400 γ/ml
Source text: In FIG. 1, the effects of compound (Ib-4) are shown in comparison with methisoprinol on the stimulation by phytohemagglutinin (PHA) of lymphocytes extracted by patients affected by Hodgkin's disease and off-therapy since, at least, 17 months. The PHA response of lymphocytes of these patients are below normal range.
The in vitro effect of (Ib, 4) and methisoprinol on the stimulation by PHA of lymphocytes was studied by cultivating PHA stimulated lymphocytes in the presence of these compounds at different doses: methisoprinol at 100, 200, 400 γ/ml; (Ib-4) at 0.1, 0.5, 1 and 5 γ/ml.

[3] = test system: autologous lymphocytes stimulated by concanavalin A; assay: Suppressor cell effect: proliferative response of autologous lymphocytes stimulated by concanavalin A; assay type: cell-based, human (healthy volunteers); conditions: 0.1 to 1.5 μg/ml; 48 h drug incubation; concanavalin A 3 days
Protocol: (§1) The effect of (Ib-4) on the suppressor cell has also been studied using lymphocytes from healthy volunteers, incubated for 48 hours with different drug concentrations then washed and incubated either with autologous lymphocytes stimulated by concanavalin A for 3 days or with allogeneic mitomycin-treated lymphocytes for 5 days (Mixed Lymphocytes Reaction): (Ib-4), at concentrations between 0.1 and 1.5 μg/ml, gave an inhibition of the proliferative response of about 60% in comparison with controls.

[4] = test system: spleen cells from BALB/C mice; assay: Incorporation of labelled thymidine stimulated by PHA or LPS in spleen cells; assay type: cell-based, mouse (BALB/C); design: Thymid. inc.: unit not given here
Protocol: Ib-4 is also active, at doses ranging from 0.001 to 40 μg/ml, in inhibiting the incorporation of labelled thymidine stimulated by phytohemagglutinin (PHA) or lypopolysaccharides (LPS), in spleen cells from BALB/C mice 8-10 weeks old. The inhibition of the proliferation in vitro is dose-dependent and it is probably due to activation of suppressor cell mechanism. In the following table the results of thymidine incorporation in a 10^6 cells/ml culture have been listed.

[5] = test system: allogeneic mitomycin-treated lymphocytes; assay: Suppressor cell effect: Mixed Lymphocytes Reaction; assay type: cell-based, human (healthy volunteers); conditions: 0.1 to 1.5 μg/ml; 48 h drug incubation; mixed lymphocytes 5 days
Protocol: as §1

[6] = test system: polymorphonuclear leucocytes; assay: Polymorphonuclear (PMN) membrane-stimulated oxidative metabolic activity (superoxide production); assay type: cell-based
Protocol: In FIG. 2 the results of the study of the effect of (Ib-4) on the polymorphonuclear (PMN) […] membrane-stimulated oxidative metabolic activity are reported: polymorphonuclear leucocytes (2.5×10^4 /ml) in phosphate buffer solution (PBS) were incubated for 15' at 37° C. with ferricytochrome C (1.5 mg/ml) in the presence or absence of superoxide dismutase (SOD) (0.125 mg/ml) after the addition of 50 μl of stimulating agent.
The amount of reduced cytochrome C in che cell free supernatant was determined spectrophotometrically at 550 nm and the O2^- release calculated according to a standard formula. Appropriate control tubes contained fixed doses of (Ib-4) (from 0.01 γ/ml to 200 γ/ml).

Compound: CC(NC(=O)CCC(=O)OCCn1cnc2c(O)ncnc21)C(=O)O (racemic) [Ib-2, 6-Hydroxy-9-{2-[2-(1-carboxy)ethylaminocarbonylethyl]carbonyloxyethyl}purine]
- % of cells forming active E-rosettes ([1]; 1 and 3 μg/ml, enhanced from 35%, 90 min incubation): 50%
- percentage of active E-rosettes at higher concentrations ([1]; concentrations higher than 1 and 3 μg/ml): decreased

Compound: methisoprinol [reference compound]
- effect on the PHA response [2]: a stimulating effect which is less than that produced by (Ib-4)
- dose producing enhancement of the PHA response ([2]; in vitro, lymphocytes of Hodgkin's disease patients off-therapy): 200 to 400 µg/mL

Compound: N=C(NCCC[C@H](N)C(=O)O)NC(=O)CCC(=O)OCCn1cnc2c(O)ncnc21 [Ib-4, N-{3-[2-(6-hydroxypurinyl-9)-ethoxycarbonyl]propionyl}-N'-(4-carboxy-4-amino-butyl)guanidine]
- inhibition of the proliferative response in comparison with controls [3]: about 60%
- Thymid. inc. ([4]; LPS (printed LPSD), drug 0.1 μg/ml, control without drug 15631+/-215): 729+/-51
- Thymid. inc. ([4]; LPS, drug 0.001 μg/ml, control without drug 15631+/-215): 4600+/-85
- Thymid. inc. ([4]; LPS, drug 0.01 μg/ml, control without drug 15631+/-215): 435+/-113
- Thymid. inc. ([4]; LPS, drug 1 μg/ml, control without drug 15631+/-215): 665+/-19
- Thymid. inc. ([4]; LPS, drug 2.5 μg/ml, control without drug 15631+/-215): 627+/-40
- Thymid. inc. ([4]; LPS, drug 5 μg/ml, control without drug 15631+/-215): 445+/-44
- Thymid. inc. ([4]; LPS, drug 10 μg/ml, control without drug 15631+/-215): 385+/-38
- Thymid. inc. ([4]; LPS, drug 15 μg/ml, control without drug 15631+/-215): 405+/-51
- Thymid. inc. ([4]; LPS, drug 20 μg/ml, control without drug 15631+/-215): 385+/-38
- Thymid. inc. ([4]; LPS, drug 40 μg/ml, 10^6 cells/ml, control without drug 15631+/-215): 329+/-23
- inhibition of the proliferation in vitro ([4]; PHA or LPS stimulated, 0.001 to 40 μg/ml): dose-dependent
- Thymid. inc. ([4]; PHA, drug 0.001 μg/ml, control without drug 3089+/-177): 840+/-87
- Thymid. inc. ([4]; PHA, drug 0.01 μg/ml, control without drug 3089+/-177): 850+/-61
- Thymid. inc. ([4]; PHA, drug 0.1 μg/ml, control without drug 3089+/-177): 721+/-77
- Thymid. inc. ([4]; PHA, drug 1 μg/ml, control without drug 3089+/-177): 316+/-78
- Thymid. inc. ([4]; PHA, drug 2.5 μg/ml, control without drug 3089+/-177): 250+/-34
- Thymid. inc. ([4]; PHA, drug 5 μg/ml, control without drug 3089+/-177): 193+/-50
- Thymid. inc. ([4]; PHA, drug 10 μg/ml, control without drug 3089+/-177): 146+/-19
- Thymid. inc. ([4]; PHA, drug 15 μg/ml, control without drug 3089+/-177): 141+/-40
- Thymid. inc. ([4]; PHA, drug 20 μg/ml, control without drug 3089+/-177): 241+/-16
- Thymid. inc. ([4]; PHA, drug 40 μg/ml, 10^6 cells/ml, control without drug 3089+/-177): 159+/-13
- minimal effective concentration ([2]; Homo sapiens, Lymphocyte, in vitro, lymphocytes of Hodgkin's disease patients off-therapy, read-out: dose producing enhancement of the PHA response): ≤ 0.1 µg/mL
- effect on the PHA response [2]: marked enhancement of the PHA response
- inhibition of the proliferative response in comparison with controls [5]: about 60%
- enhancement in the superoxide production ([6]; 1 γ/ml, T-test for paired data): statistically significant enhancement in the superoxide production
- O2- production at higher dosages ([6]; dosages higher than 1 γ/ml (up to 200 γ/ml)): gradual decrease of the O2^- production
